Results published in patent US11759480B2, “Compositions and methods for CAR T cell therapy” (ENDOCYTE, INC., priority 2017, dated 2023).

Tests used:
SKOV-3 = assay: FITC-CAR-T/EC17 therapy, SKOV-3 model (Example 28); assay type: in vivo, NSG mice; settings: 500 nmol/kg weekly, 5 million FITC-CAR-T
Method: To test whether FITC-CAR-T/EC17 therapy has anti-tumor activity in various FR+ tumor models, NSG mice were subcutaneously implanted with MDA-MB-231 (triple negative breast cancer cell line), OV90 (human ovarian cancer cell line), KB (human cervical adenocarcinoma cell line), SKOV-3 (human ovarian carcinoma cell line), or HEK293-FRa (HEK293 stably-transfected with human FRa). When tumor size reached […], one dose of EC17 at 500 nmol/kg of body weight was injected by tail vein followed with administering of 5 million FITC-CAR-T cells 4 hours later. 500 nmol/kg EC17 was dosed once every week after the initial EC17/CAR-T administration (about day 7), tumor size and body weights of mice were monitored three times per week. The EC17 dosing days were labeled as green dashed vertical lines in the graph. […] EC17 dose-dependent temporary body weight loss was also observed in all tumor bearing mice, indicating the activation of CAR-Ts is EC17-dependent in these mice.

MDA-MB-231 tumors = assay: FITC-CAR-T cell proliferation in vivo versus EC17 dose (Example 36); parameters: species or system NSG mice
Method: To evaluate whether the bridge dose can control CAR-T proliferation in vivo, NSG mice bearing MDA-MB-231 tumors (250-500 mm3) were divided into 4 groups and dosed with 0, 5, 50, or 500 nmol/kg of body weight of EC17 respectively (as shown in FIG. 40A). Four hours later, the four groups were administered with 5 million FITC-CAR-T cells which were cultured in vitro for 11 days, while one group of mice pre-dosed with 500 nmol/kg EC17 was not dosed with CAR-T cells and was used as a “No CAR-T control”. […] Blood samples were then collected 16 hours post the second EC17 dose and analyzed for CAR-T numbers in blood circulation (FIG. 40B). […] The interpretation of this finding is that CAR-T cells proliferated more in mice dosed with 50 or 500 nmol/kg EC17 than in mice dosed with 5 nmol/kg EC17, so that the CAR-T counts in blood circulation were higher.
To further confirm that FITC-CAR-T proliferation is EC17 dose-dependent, we also evaluated CAR-T proliferation in vivo when CAR-Ts were given more time to settle down and proliferate. For this purpose, we examined CAR-T cell number in mice which were administered with CAR-T cells six days earlier and four doses of EC17 had been given to boost CAR-T proliferation in vivo. NSG mice bearing MDA-MB-231 tumors (250-500 mm3) were divided into 4 groups and dosed with 0, 5, 50, or 500 nmol/kg of body weight of EC17 respectively (as shown in FIG. 41A). Four hours later, all mice were administered with 5 million FITC-CAR-T cells which were cultured in vitro for 18 days. Various levels of EC17 were then dosed at days 1, 3, 5 post CAR-T administering to boost CAR-T proliferation. Mouse blood samples were collected 24 hours post the last EC17 dose, CAR-T cells in blood were stained with anti-human CD45 antibody and counted by FACS.

[1] = tested on: naïve mice without tumors; assay: FITC-CAR-T proliferation, toxicity and cytokines in naïve mice (Example 37); assay type: in vivo
Method: The evaluation of FITC-CAR-T proliferation and related toxicity in both naïve mice and mice bearing FR+ tumor xenografts was tested. To evaluate whether FITC-CAR-T proliferation in vivo is dependent on the co-existence of the bridge (e.g. EC17) and the tumor antigen (e.g. folate receptor), FITC-CAR-T proliferation in vivo was compared in naïve mice and mice bearing FR+ tumor xenografts, either with or without EC17. 5-8 million CAR-T cells (as indicated in FIGS. 42 and 43) were administered (i.v.) into naïve mice without tumors and mice bearing FR+ tumor xenografts (80-200 mm3). 500 nmol/kg EC17 was dosed 4 hours before and three times per week post CAR-T administration, if desired. Mice were monitored for body weight changes and CAR-T cell count in blood circulation; some mice were also euthanized weekly to evaluate organs. […] CAR-T cell count in blood samples was also compared to evaluate CAR-T proliferation. […] Since the enlargement of spleen size is another indicator for CAR-T proliferation in vivo, spleen size was also measured as shown in FIG. 43B. […]
Cytokine levels including IFN were measured using LEGENDplex human cytokine panel kits (BioLegend, San Diego, Calif.) according to the manufacturer's instructions. Plasma samples were diluted with Assay Buffer, and then mixed with Capture beads immobilized with the antibody directed to the analyzed cytokine. After 2 hours incubation at room temperature with shaking, biotinylated Detection antibody to the analyzed cytokine was added and incubated for one more hour at room temperature with shaking. Phycoerythrin (PE) labeled streptavidin was then added to bind with biotin on the Detection antibody, and FACS was used to read the signal of PE on the binding complex (capture antibody-cytokine-detection antibody). The intensity of PE is proportional to the level of analyzed cytokine. A series of cytokine solutions with known concentrations were measured at the same time and used as standards to quantitate the cytokine levels in the analyzed samples.

Nc1nc2ncc(CNc3ccc(C(=O)NC(CCC(=O)NCCNC(=S)Nc4ccc(-c5c6ccc(=O)cc-6oc6cc(O)ccc56)c(C(=O)O)c4)C(=O)O)cc3)nc2c(=O)[nH]1 (stereo not shown) [EC17, FITC-Folate]
tumor response (SKOV-3): stable disease
CAR-T cells in blood versus 0 nmol/kg EC17 (MDA-MB-231 tumors; 5 nmol/kg, day 3): less CAR-T cells in their blood circulation
CAR-T cells in blood (MDA-MB-231 tumors; 50 or 500 nmol/kg, day 3): more CAR-T cells in their blood circulation
EC17 dose with the highest CAR-T count (MDA-MB-231 tumors; day 6, four EC17 doses): 50 nmol/kg
cytokine production (CAR-T activity) ([1]; 500 nmol/kg three times per week): not active in naïve mice
body weight ([1]; 500 nmol/kg three times per week or no EC17): did not show any apparent body weight loss
FITC-CAR-T proliferation ([1]; 5 or 8 million FITC-CAR-T cells): did not proliferate in naïve mice
